Assays:
[1] = system: HAP1 MTAP-deleted cell line; test: SDMA in-cell western assay, HAP1 MTAP-deleted; format: cell-based; settings: for IC50: Homo sapiens, HAP1, SDMA in-cell western, HAP1 MTAP-deleted; for MTAP intact/deleted ratio: SDMA in-cell western
Procedure, shortened: (§1)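 MTAP-null vs endogenous-MTAP HAP1 isogenic cells; in-cell western SDMA readout; IC50 per line.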

PRMT5 [2] = molecular target: T1, PRMT5 (Homo sapiens, UniProt O14744); test: PRMT5 biochemical IC50 assay with SAM as cofactor; settings: PRMT5, SAM as cofactor; read-out: SAM IC50
T1 construct: purchased Viva (custom protein)

PRMT5 [3] = molecular target: T1, PRMT5; test: PRMT5 biochemical IC50 assay with no cofactor; settings: PRMT5, no cofactor
Excerpt: Table 1 indicates IC50 values (μM) against PRMT5 for exemplary compounds in the presence of SAM as cofactor, with no cofactor, and with MTA as cofactor, respectively (columns 4-6). […] Ki values can be calculated from the IC50 values as described in the Examples section. As detailed in the Examples section, for the assay performed in the presence of SAM, IC50=Ki×1.5 (Ki=IC50/1.5).

[4] = system: HAP1 MTAP-deleted cell line; test: Viability assay, MTAP-deleted cell line; format: cell-based; settings: Homo sapiens, read-out: HAP1 MTAP deleted viability
Excerpt: Table 1 additionally indicates IC50 values in a viability assay for the MTAP-deleted cell line (column 10), indicating the effect of treatment with compound on cell survival.

PRMT5 [5] = molecular target: T1, PRMT5; test: PRMT5 biochemical IC50 assay with MTA as cofactor; settings: PRMT5, MTA as cofactor; read-out: MTA IC50
[6] = system: HAP1 MTAP-intact cell line; test: SDMA in-cell western assay, HAP1 MTAP-intact; format: cell-based; settings: Homo sapiens, HAP1, SDMA in-cell western, HAP1 MTAP-intact; read-out: MTAP HAP1 intact IC50
Procedure, shortened: as §1

[7] = read-out: HAP 1 MTAP deleted IC50
[8] = IC50 ratio HAP1 MTAP-intact / HAP1 MTAP-deleted
[9] = HAP1, viability assay, MTAP-deleted cell line
[10] = read-out: HAP1 MTAP deleted IC50
[11] = IC50 ratio HAP1 MTAP-intact vs HAP1 MTAP-deleted
[12] = HAP1, viability assay, HAP1 MTAP-deleted
[13] = read-out: No Cofactor/ rel IC50

T1 sequence (O14744 whole entry): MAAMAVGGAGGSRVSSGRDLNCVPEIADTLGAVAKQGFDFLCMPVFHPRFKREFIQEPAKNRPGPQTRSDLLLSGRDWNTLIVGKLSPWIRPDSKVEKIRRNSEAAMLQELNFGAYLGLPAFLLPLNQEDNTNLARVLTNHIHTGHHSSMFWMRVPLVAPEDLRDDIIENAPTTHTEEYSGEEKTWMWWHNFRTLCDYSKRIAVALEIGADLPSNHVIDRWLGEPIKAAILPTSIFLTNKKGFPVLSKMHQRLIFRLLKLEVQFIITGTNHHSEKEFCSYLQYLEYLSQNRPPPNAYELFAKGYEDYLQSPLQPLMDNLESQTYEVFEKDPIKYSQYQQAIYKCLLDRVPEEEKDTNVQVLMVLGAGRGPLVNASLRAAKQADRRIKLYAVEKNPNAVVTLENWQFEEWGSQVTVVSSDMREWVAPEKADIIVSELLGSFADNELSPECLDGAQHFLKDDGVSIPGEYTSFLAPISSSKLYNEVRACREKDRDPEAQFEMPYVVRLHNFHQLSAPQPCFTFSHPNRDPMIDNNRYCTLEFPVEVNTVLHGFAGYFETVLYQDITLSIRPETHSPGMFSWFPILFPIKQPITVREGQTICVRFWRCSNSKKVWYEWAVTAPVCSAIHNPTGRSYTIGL
T1 sequence (Q9BQA1 whole entry partner): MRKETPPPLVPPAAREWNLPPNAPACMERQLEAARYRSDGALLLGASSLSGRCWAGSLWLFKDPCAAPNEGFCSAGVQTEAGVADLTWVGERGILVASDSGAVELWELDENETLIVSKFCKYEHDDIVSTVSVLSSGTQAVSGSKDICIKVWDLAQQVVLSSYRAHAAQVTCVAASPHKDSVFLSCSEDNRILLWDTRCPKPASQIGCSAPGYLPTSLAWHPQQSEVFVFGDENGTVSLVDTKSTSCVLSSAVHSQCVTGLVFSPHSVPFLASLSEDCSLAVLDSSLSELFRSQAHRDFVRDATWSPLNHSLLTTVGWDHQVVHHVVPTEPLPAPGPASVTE

Row | Structure (SMILES) | IC50 [1, 7] [nM] | MTAP intact/deleted ratio [1, 8] | IC50 (PRMT5 [2]) [nM] | IC50 (PRMT5 [3]; read-out: No Cofactor/rel IC50) [nM] | IC50 [4, 9] [nM] | IC50 (PRMT5 [5]) [nM] | IC50 [6] [nM] | IC50 [1, 10] [nM] | MTAP intact/deleted ratio [1, 11] | IC50 [4, 12] [nM] | IC50 (PRMT5 [3]; [13]) [nM] | IC50 ([4]; HAP1, viability, HAP1 MTAP-deleted cell line) [nM]
1 | CCc1cc(NC(=O)C(=O)N2C[C@@H](C)CC[C@@H]2c2cccc3[nH]ncc23)cnc1N (single isomer, unassigned) [Compound 928] | < 100 | A (an IC50 ratio greater than or equal to 10 fold) | 50 to 500 | < 50 | < 1000 | < 50 | > 1000 |  |  |  |  | 
2 | C[C@H]1CC[C@H](c2ccc3sc(C4CCN(C)CC4)nc3c2)N(C(=O)C(=O)Nc2cnc(N)c([C@@H]3CCOC3)c2)C1 (single isomer, unassigned) [Compound 1154] |  |  | < 50 | < 50 | < 1000 | < 50 | < 100 | < 100 | A (an IC50 ratio greater than or equal to 10 fold) |  |  | 
3 | CCc1cc(NC(=O)C(=O)N2C[C@H](C)CC[C@H]2c2ccccc2)cnc1N (single isomer, unassigned) [Compound 736] |  | A (an IC50 ratio greater than or equal to 10 fold) | 50 to 500 | < 50 |  | < 50 | > 1000 | < 100 |  | < 1000 |  | 
4 | CCOc1ncc(NC(=O)C(=O)N2C[C@@H](C)CC[C@@H]2c2ccccc2)cc1C(N)=O (racemic) [Compound 738] |  | B (an IC50 ratio greater than or equal to 3 fold but lower than 10 fold) | 50 to 500 | 50 to 500 |  | 50 to 500 | > 1000 | > 1000 |  | > 10000 |  | 
5 | CCc1cc(NC(=O)C(=O)N2C[C@@H](C)CC[C@@H]2c2ccc(CCN(C)C)cc2)cnc1N [Compound 1228, N-(6-amino-5-ethylpyridin-3-yl)-2-((2R,5S)-2-(4-(2-(dimethylamino)ethyl)phenyl)-5-methylpiperidin-1-yl)-2-oxoacetamide] |  |  | 50 to 500 | < 50 | < 1000 | < 50 | 100 to 1000 | < 100 | A (an IC50 ratio greater than or equal to 10 fold) |  |  | 
6 | Cc1cc(NC(=O)C(=O)N2CCCCC2c2ccccc2)cnc1N (racemic) [Compound 53, N-(6-Amino-5-methyl-3-pyridyl)-2-oxo-2-(2-phenyl-1-piperidyl)acetamide] | 100 to 1000 | A (an IC50 ratio greater than or equal to 10 fold) | 50 to 500 |  | > 10000 | < 50 | > 1000 |  |  |  | 50 to 500 | 
7 | Cc1ncc(NC(=O)C(=O)N2C[C@H](C)CC[C@H]2c2ccc3c(c2)CCC(=O)N3)cc1C(F)F (racemic) [Compound 803, rac-N-[5-(Difluoromethyl)-6-methyl-3-pyridyl]-2-[(2S,5R)-5-methyl-2-(2-oxo-3,4-dihydro-1H-quinolin-6-yl)-1-piperidyl]-2-oxo-acetamide] |  | A (an IC50 ratio greater than or equal to 10 fold) | 50 to 500 | 50 to 500 |  | < 50 | > 1000 | < 100 |  | < 1000 |  | 
8 | Cc1cc(NC(=O)C(=O)N2C[C@@H](C)CC[C@@H]2c2ccc3sc(N)nc3c2)cnc1N (single isomer, unassigned) [Compound 997] | < 100 | B (an IC50 ratio greater than or equal to 3 fold but lower than 10 fold) | 50 to 500 | < 50 | < 1000 | < 50 | < 100 |  |  |  |  | 
9 | CCc1cc(NC(=O)C(=O)N2C[C@@H](C)CC[C@@H]2c2ccc(C)nc2)cnc1N (single isomer, unassigned) [Compound 784] |  | A (an IC50 ratio greater than or equal to 10 fold) | 50 to 500 | < 50 |  | < 50 | > 1000 | < 100 |  | < 1000 |  | 
10 | COc1ncc(NC(=O)C(=O)N2C[C@@H](C)CC[C@@H]2c2ccc3c(c2)C(=O)NC3)cc1C(N)=O (racemic) [Compound 759, 2-methoxy-5-[[2-[(2S,5R)-5-methyl-2-(3-oxoisoindolin-5-yl)-1-piperidyl]-2-oxo-acetyl]amino]pyridine-3-carboxamide] |  | A (an IC50 ratio greater than or equal to 10 fold) | 50 to 500 | 50 to 500 |  | < 50 | > 1000 | 100 to 1000 |  | 1000 to 10000 |  | 
11 | Cc1cc(NC(=O)C(=O)N2CCCC[C@H]2c2ccncc2)cnc1N (single isomer, unassigned) [Compound 47] | > 1000 | C (an IC50 ratio of less than 3 fold) | > 500 |  | > 10000 | > 500 | > 1000 |  |  |  | > 500 | 
12 | Cc1c(NC(=O)C(=O)N2C[C@@H](C)CC[C@@H]2c2ccccc2)cnc(N)c1C (single isomer, unassigned) [Compound 368] |  | A (an IC50 ratio greater than or equal to 10 fold) | 50 to 500 | 50 to 500 | 1000 to 10000 | < 50 | > 1000 | < 100 |  |  |  | 
13 | Cc1cc(NC(=O)C(=O)N2C[C@H](C)CC[C@H]2c2ccc3sc(C(F)(F)F)nc3c2)cnc1N (racemic) [Compound 861, rac-N-(6-Amino-5-methyl-3-pyridyl)-2-[(2R,5S)-5-methyl-2-[2-(trifluoromethyl)-1,3-benzothiazol-5-yl]-1-piperidyl]-2-oxo-acetamide] |  | A (an IC50 ratio greater than or equal to 10 fold) | 50 to 500 | 50 to 500 |  | 50 to 500 | 100 to 1000 | < 100 |  | < 1000 |  | 
14 | CCc1cc(NC(=O)C(=O)N2C[C@@H](C)CC[C@@H]2c2cccc(CCN(C)C)c2)cnc1N [Compound 1226, N-(6-amino-5-ethylpyridin-3-yl)-2-((2R,5S)-2-(3-(2-(dimethylamino)ethyl)phenyl)-5-methylpiperidin-1-yl)-2-oxoacetamide] |  |  | 50 to 500 | < 50 | < 1000 | < 50 | 100 to 1000 | < 100 | A (an IC50 ratio greater than or equal to 10 fold) |  |  | 
15 | Cc1cc(NC(=O)C(=O)N2CCCC[C@@H]2c2ccccc2)cnc1N (single isomer, unassigned) [Compound 51] | 100 to 1000 | B (an IC50 ratio greater than or equal to 3 fold but lower than 10 fold) | 50 to 500 |  | > 10000 | < 50 | > 1000 |  |  |  | 50 to 500 | 
16 | C[C@@H]1CC[C@@H](c2ccc3cn(C)nc3c2)N(C(=O)C(=O)Nc2cnc(N)c(C3CC3)c2)C1 (single isomer, unassigned) [Compound 1403] | < 100 | A (an IC50 ratio greater than or equal to 10 fold) | 50 to 500 |  |  | < 50 | 100 to 1000 |  |  |  | < 50 | < 1000
17 | CCc1cc(NC(=O)C(=O)N2C[C@@H](C)CC[C@@H]2c2ccc3sc([C@H]4CN(C)CCO4)nc3c2)cnc1N [Compound 1202, N-(6-amino-5-ethyl-3-pyridyl)-2-oxo-2-[(2R,5S)-5-methyl-2-[2-[(2R)-4-methylmorpholin-2-yl]-1,3-benzothiazol-5-yl]-1-piperidyl]acetamide] |  |  | 50 to 500 | < 50 | < 1000 | < 50 | < 100 | < 100 | A (an IC50 ratio greater than or equal to 10 fold) |  |  | 
18 | CNc1ccc([C@@H]2CC[C@H](C)CN2C(=O)C(=O)Nc2cnc(OC)c(C(N)=O)c2)cn1 (single isomer, unassigned) [Compound 468] |  | C (an IC50 ratio of less than 3 fold) | > 500 | > 500 | > 10000 | > 500 | > 1000 | > 1000 |  |  |  | 
19 | Cc1cc(NC(=O)C(=O)N2C[C@@H](C)CC[C@@H]2c2ccc3sc(C4CCN(C)CC4)nc3c2)cnc1C [Compound 1137, N-(5,6-dimethylpyridin-3-yl)-2-((2R,5S)-5-methyl-2-(2-(1-methylpiperidin-4-yl)benzo[d]thiazol-5-yl)piperidin-1-yl)-2-oxoacetamide] |  |  | < 50 | < 50 | < 1000 | < 50 | < 100 | < 100 | A (an IC50 ratio greater than or equal to 10 fold) |  |  | 

Source: patent US11999727B2 (Tango Therapeutics, Inc., priority 2020, dated 2024)
